According to US8344022B2, “Vaginal health products” (Kimberly-Clark Worldwide, Inc., priority 2004, dated 2013):
Several values for one entry are separate records, joined by “and”; a condition that tells them apart may be missing. Identical values can stand only once.

Legend:
[1] = test system: collagen production in human skin fibroblast cell line; experiment: Collagen production by human skin fibroblasts (Takara EIA MK101); format: cell-based; settings: for Collagen Production, Mean (absorbance at 450 nm) / Collagen Production, Median (absorbance at 450 nm): 48 hours, n=2
Procedure: The cells were first grown in a 96-well assay system using Dulbecco's Modified Eagle's Medium (DMEM) with 10% fetal bovine serum (FBS) both purchased from Sigma Chemical Co, St. Louis, Mo. Serum-free DMEM was used as a control.
The assay was done by using the recommended 20 ul of the supernatant from each well of the 96-well plate. Standard buffer and stop solutions were freshly prepared before running the assay. 100 ul of antibody-POD conjugate solution (supplied with the kit) was added into the wells using pre antibody coated 96 well plate (supplied with the kit). 20 ul of standard and test solutions (from the other 96-well plate containing fibroblasts) were added to appropriate wells. Plate was mixed gently, sealed and incubated for three hrs. at 37° C.
After incubation each well was washed carefully four times with PBS buffer (400 ul). All the wells were completely emptied at the end of washing from any liquid.
100 ul of substrate solution (hydrogen peroxide and tetramethylbenzidine in a buffer solution, supplied with the kit) was added to each well and the plate was incubated for 15 minutes. At this point 100 ul of stop solution (freshly prepared 1N H2SO4) was added to each well in the same order as substrate. The plate was gently mixed and absorbance was read at 450 nm.

[2] = test system: Human cervical epithelial cells (ME-180); experiment: ME-180 cell growth with jasmonic acid (hemocytometer counting); format: cell-based; settings: 1, 10 and 100 μg/ml, two days
Procedure: Human cervical epithelial cells (ME-180, ATCC) were propagated in culture at 37° C. using 5% CO2 in McCoy's 5A media (Invitrogen) with 10% heat-inactivated fetal bovine serum (Invitrogen). Jasmonic acid (Sigma) was diluted in the ME-180 media to 100, 10, and 1 microgram/mL.
ME-180 cells were plated in 12-well plates at a concentration of 5×10^4 cells per well in 2 mL of media. The cells were allowed to grow for 1 day. Cells in three wells were counted by trypsinizing and using a hemocytometer to determine cell number on day zero. The media was removed from all other wells and was replaced with fresh media, 100, 10, or 1 μg/mL jasmonic acid-containing media (2 mL) in triplicate. Cells were counted on days 1 and 2 to determine the effect of the jasmonic acid on cell growth.

[3] = test system: stratum corneum; experiment: Dansyl chloride cell renewal study in healthy female volunteers; format: in vivo, human
Description: The stratum corneum renewal time is the time taken for the whole thickness of the stratum corneum to be exfoliated and replaced by new cells from the dividing epidermis. This renewal time is a fundamental indicator of skin health. […] See Jansen L H, Hojyo-Tomoko M T, Kligman A M., Improved fluorescence staining technique for estimating turnover of the human stratum corneum, Br J Dermatol., 90, 9-12, 1974; Ridge B D, Batt M D, Palmer H E, Jarrett A, The dansyl chloride technique for stratum corneum renewal as an indicator of changes in epidermal mitotic activity following topical treatment., Br J Dermatol., 118, 167-74, 1988; Grove G L, Kligman A M, Age-associated changes in human epidermal cell renewal., J Geron., 38, 137-142, 1983. The time required for the dye to disappear is therefore an indication of the turnover time of the stratum corneum. Therefore, any differences in the time required for the dye to disappear from treated and non-treated sites can be considered to be an expression of that product's ability to enhance epidermal renewal.
A dansyl chloride cell renewal study was conducted in healthy female volunteers ranging from 43-64 years of age. The study consisted of a two-week treatment period during which time the products were applied topically twice daily, including on weekend days, to the test sites. The area of application was designated, approximately 5 cm×10 cm on the upper inner arm. The other arm served as a control with no product application. […] Eight females received jasmonic acid and seven females received gibberellic acid.
The time required for a marker dye to disappear was used as the measure of cell renewal rate.

[4] = test system: fibronectin production in human skin fibroblast cell line; experiment: Fibronectin production by human skin fibroblasts (Takara EIA MK115); format: cell-based; settings: for fibronectin production, Mean (absorbance at 450 nm) / fibronectin production, Median (absorbance at 450 nm): 48 hours, n=2
Procedure: The cells were first grown in a 96-well assay system using Dulbecco's Modified Eagle's Medium (DMEM) with 10% fetal bovine serum (FBS) both purchased from Sigma Chemical Co, St. Louis, Mo. Serum-free DMEM was used as a control. […] The fibronectin assay was performed using the recommended 100 μl of the supernatant from each well of the 96-well plate. Standard buffer and stop solutions were freshly prepared before running the assay. A pre-antibody-coated 96 well plate (provided with the kit) was used to transfer the test samples and control. The plate was mixed, sealed and incubated for 1 hour at 37° C. All the wells were washed after removing sample solutions, 3 times (300 μl) with washing buffer. 100 ul of antibody-POD conjugate solution was added into the wells. Plate was mixed, sealed and incubated for one hour at 37° C. Solutions were removed and the wells were washed 3 times with washing buffer. All the wells were completely emptied at the end of washing from any liquid. 100 μl of substrate solution (hydrogen peroxide and tetramethylbenzidine in a buffered solution) was added to each well and the plate was incubated at room temperature for 15 minutes. 100 μl of stop solution (freshly prepared 1N H2SO4) was added to each well in the same order as substrate. The plate was gently mixed and absorbance was read at 450 nm.

[5] = test system: human skin keratinocytes; experiment: Keratinocyte proliferation, 96-well Cell Titer 96 assay; format: cell-based; settings: for Cell Proliferation, Mean (absorbance at 490 nm) / Cell Proliferation, Median (absorbance at 490 nm): 48 hours, n=5
Procedure: The proliferative response of these human skin keratinocytes to the test compounds was measured in a 96-well assay system using keratinocyte basal medium (KBM, Clonetics, catalog number CC-3103) as a control. […] In addition, 100 μl of vehicle KBM was added to 5 wells as control. […] The spectrophotometric absorbance of each well was read at 490 nm.

Structure (SMILES): CC/C=C\C[C@H]1C(=O)CC[C@@H]1CC(=O)O [jasmonic acid]
- Collagen Production, Mean (absorbance at 450 nm) ([1]; 1×10^−4 M): 0.8040
- Collagen Production, Median (absorbance at 450 nm) ([1]; 1×10^−4 M): 0.8040
- collagen production in human fibroblasts (summary in words) ([1]; 1×10^−4 to 1×10^−6 M): stimulate collagen production
- Collagen Production, Mean (absorbance at 450 nm) ([1]; 1×10^−5 M): 0.7895
- Collagen Production, Median (absorbance at 450 nm) ([1]; 1×10^−5 M): 0.7895
- Collagen Production, Mean (absorbance at 450 nm) ([1]; 1×10^−6 M): 0.7475
- Collagen Production, Median (absorbance at 450 nm) ([1]; 1×10^−6 M): 0.7475
- ME-180 epithelial cell growth (FIGS. 8 and 9) [2]: increased cell growth in a dose dependent manner
- skin irritation or redness ([3]; human, in vivo): no visible sign of any skin irritation or redness
- RENEWAL, time for cell renewal of treated skin ([3]; individual patients (one value per patient #), 0.25% in hyaluronic acid (0.5% aqueous solution), topical twice daily, upper inner arm, listed as JA): 16 Days and 15 Days (2×) and 17 Days and 14 Days and 11 Days and 12 Days (2×)
- faster cell renewal rate over control ([3]; overall, 0.25% topical, vs untreated arm): 28%
- reduction in time required for cell renewal vs untreated control ([3]; vs volunteers' control without treatment): about 28%
- fibronectin production, Mean (absorbance at 450 nm) ([4]; 1×10^−4 M): 0.2060
- fibronectin production, Median (absorbance at 450 nm) ([4]; 1×10^−4 M): 0.2060
- fibronectin production, Mean (absorbance at 450 nm) ([4]; 1×10^−5 M): 0.2025
- fibronectin production, Median (absorbance at 450 nm) ([4]; 1×10^−5 M): 0.2025
- fibronectin production, Mean (absorbance at 450 nm) ([4]; 1×10^−6 M): 0.1955
- fibronectin production, Median (absorbance at 450 nm) ([4]; 1×10^−6 M): 0.1955
- fibronectin production in human fibroblasts (summary in words) ([4]; all concentrations tested, vs control): effective
- Cell Proliferation, Mean (absorbance at 490 nm) ([5]; 1×10^−4 M): 0.5732
- Cell Proliferation, Median (absorbance at 490 nm) ([5]; 1×10^−4 M): 0.5860
- cell proliferating activity on human keratinocytes (summary in words) ([5]; 1×10^−4 to 1×10^−6 M): strong cell proliferating activity
- Cell Proliferation, Mean (absorbance at 490 nm) ([5]; 1×10^−5 M): 0.7628
- Cell Proliferation, Median (absorbance at 490 nm) ([5]; 1×10^−5 M): 0.7750
- Cell Proliferation, Mean (absorbance at 490 nm) ([5]; 1×10^−6 M): 0.7734
- Cell Proliferation, Median (absorbance at 490 nm) ([5]; 1×10^−6 M): 0.7970
